Assay results published in BindingDB's records for doi:10.1080/14756360701342532 (Chinese Academy of Medical Sciences, 2008).

Target: T1, Seed linoleate 13S-lipoxygenase-1 (Glycine max, UniProt P08170)
T1 sequence (P08170 whole entry): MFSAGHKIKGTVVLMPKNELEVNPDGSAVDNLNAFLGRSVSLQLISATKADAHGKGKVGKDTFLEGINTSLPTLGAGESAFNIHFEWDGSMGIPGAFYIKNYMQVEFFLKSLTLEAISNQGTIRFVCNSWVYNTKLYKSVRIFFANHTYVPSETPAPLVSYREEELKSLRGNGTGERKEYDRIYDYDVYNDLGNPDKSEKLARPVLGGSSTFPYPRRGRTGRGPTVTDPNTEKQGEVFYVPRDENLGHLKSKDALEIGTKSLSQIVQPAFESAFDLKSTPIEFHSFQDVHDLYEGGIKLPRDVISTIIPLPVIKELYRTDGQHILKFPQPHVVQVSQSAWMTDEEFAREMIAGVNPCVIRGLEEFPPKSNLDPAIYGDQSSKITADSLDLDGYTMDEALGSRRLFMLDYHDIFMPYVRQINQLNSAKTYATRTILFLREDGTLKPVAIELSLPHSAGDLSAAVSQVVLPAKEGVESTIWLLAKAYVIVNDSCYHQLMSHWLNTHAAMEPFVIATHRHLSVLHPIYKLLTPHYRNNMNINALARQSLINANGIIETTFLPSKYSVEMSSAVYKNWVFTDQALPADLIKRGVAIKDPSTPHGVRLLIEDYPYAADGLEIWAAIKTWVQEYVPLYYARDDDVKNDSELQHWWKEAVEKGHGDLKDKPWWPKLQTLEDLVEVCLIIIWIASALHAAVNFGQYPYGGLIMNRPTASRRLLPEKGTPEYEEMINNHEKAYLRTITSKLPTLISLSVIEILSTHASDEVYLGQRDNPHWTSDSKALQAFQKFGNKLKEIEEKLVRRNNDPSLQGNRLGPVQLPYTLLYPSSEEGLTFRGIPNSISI
Experiment: Inhibition Assay
Conditions: pH 8; 25 °C
Procedure: Lipoxygenase inhibiting activity was measured by slightly modifying the spectrometric method. Lipoxygenase type I-B and linoleic acid were purchased from Sigma.

Structure (SMILES)	IC50
COC(=O)[C@@H]1C2C=C[C@@]3(O)CO[C@@H](O[C@@H]1O)C23 (stereo partly drawn) [Beta-gardiol, 5]	47.3 µM
CC(C)CC(=O)OCC1=C[C@@H](O)[C@@H]2C=CC[C@H](OC3OC(CO)C(O)C(O)C3O)[C@H]12 (some centres not stated) [Buddlejoside C, 3]	52.5 µM
COC(=O)C1=CO[C@@H](O)C2C(CO)C=CC12 (some centres not stated) [Genipin, 4]	49.6 µM

Now those with a lower IC50, led by results:

IC50	Structure (SMILES)
44.3 µM	O=C(OCC1=C[C@@H](O)[C@@H]2C=CO[C@@H](OC3OC(CO)C(O)C(O)C3O)[C@H]12)c1ccc(O)cc1 (some centres not stated) [Buddlejoside A, 1]
41.9 µM	COc1ccc(/C=C/C(=O)OC2C(C)OC(O[C@@H]3C=C(CO)C4C3C=CO[C@H]4OC3OC(CO)C(O)C(O)C3O)C(OC(C)=O)C2O)cc1 (some centres not stated) [Buddlejoside A2, 6]
40.4 µM	COc1ccc(/C=C/C(=O)OC2C(O)C(C)OC(O[C@H]3C4C=CO[C@@H](OC5OC(CO)C(O)C(O)C5O)C4[C@@]4(CO)O[C@@H]34)C2OC(C)=O)cc1 (some centres not stated) [Buddlejoside A5, 7]
39.7 µM	O=C(OCC1=C[C@@H](O)[C@@H]2C=CO[C@@H](OC3OC(CO)C(O)C(O)C3O)[C@H]12)c1ccc(O)c(O)c1 (some centres not stated) [Buddlejoside B, 2]
